Assay results reported in patent US10350213B2 (AI Therapeutics, Inc., priority 2015, dated 2019).
pIC50: −log10 of the molar value. Where two headings read alike, the source gives them in different places.

Assays:
[1] = tested on: CAMA1 (Human breast cancer); assay: CellTiterGlo cell viability assay; assay type: cell-based; conditions: CAMA-1
Procedure: (§1) Briefly, test compounds (5 μl stock solution, 6×desired final well concentration) were dispensed to 384-well assay plates, TSC2−/− MEF cells (1000 cells per well in 25 μL of media) were added to the plates and the plates were incubated for 72 h (3 days) at 37° C. under an atmosphere of 5% CO2 in a humidified incubator for 3 days. Cell viability was determined with CellTiter-Glo® luminescence assay (Promega) per the manufacturer's instructions. Viability was expressed as a percentage of untreated control cells.
(§2) 35 cell lines were identified as sensitive to apilimod-induced cytotoxicity in this assay. The apilimod-sensitive cells included cells derived from several different cancers including non-Hodgkin's lymphoma, Hodgkin's lymphoma, colorectal cancer, and lung cancer. The most sensitive of those tested were non-Hodgkin's Lymphoma (NHL) cell lines. […] The only NHL subtype not sensitive in this assay was follicular.

[2] = tested on: Daudi (Human Burkitt's lymphoma); assay: CellTiterGlo cell viability assay; assay type: cell-based
Procedure: as §1, §2

[3] = tested on: HCT116 (Human colorectal cancer); assay: CellTiterGlo cell viability assay; assay type: cell-based; conditions: HCT-116
Procedure: as §1, §2

[4] = tested on: HDLM-2 (Human Hodgkin's lymphoma); assay: CellTiterGlo cell viability assay; assay type: cell-based
Procedure: as §1, §2

HT-29 (Human Colorectal) = assay: CellTiterGlo cell viability assay; assay type: cell-based
Procedure: as §1, §2

[5] = tested on: KARPAS-422 (Human Diffuse Large B Cell Lymphoma -GCB); assay: CellTiterGlo cell viability assay; assay type: cell-based; conditions: Human DLBCL-GCB
Procedure: as §1, §2

[6] = tested on: Raji (Human Burkitt's lymphoma); assay: CellTiterGlo cell viability assay; assay type: cell-based
Procedure: as §1, §2

[7] = tested on: Rec-1 (Human Mantle Cell Lymphoma); assay: CellTiterGlo cell viability assay; assay type: cell-based; conditions: Rec1
Procedure: as §1, §2

[8] = tested on: SUDHL-1 (Human Anaplastic Large Cell Lymphoma); assay: CellTiterGlo cell viability assay; assay type: cell-based; conditions: SU-DHL-1
Procedure: as §1, §2

[9] = tested on: SW1116 (Human colorectal cancer); assay: CellTiterGlo cell viability assay; assay type: cell-based; conditions: SW 1116
Procedure: as §1, §2

SW480 (Human Colorectal) = assay: CellTiterGlo cell viability assay; assay type: cell-based
Procedure: as §1, §2

[10] = tested on: Toledo (Human Diffuse Large B Cell Lymphoma -GCB); assay: CellTiterGlo cell viability assay; assay type: cell-based; conditions: Human DLBCL-GCB
Procedure: as §1, §2

[11] = tested on: WSU-DLCL2 (Human Diffuse Large B Cell Lymphoma -GCB); assay: CellTiterGlo cell viability assay; assay type: cell-based
[12] = tested on: CAPAN2 (Human pancreatic cancer); assay: CellTiterGlo cell viability assay; assay type: cell-based; conditions: Capan-2
[13] = tested on: K562 (Human myelogenous leukemia); assay: CellTiterGlo cell viability assay; assay type: cell-based
TOV-21G (Human ovarian) = assay: CellTiterGlo cell viability assay; assay type: cell-based; conditions: TOV21G
[14] = tested on: PC-3 (Human prostate cancer); assay: CellTiterGlo cell viability assay; assay type: cell-based
[15] = tested on: RPMI-8226 (Human plasmacytoma); assay: CellTiterGlo cell viability assay; assay type: cell-based
[16] = tested on: M0591K (Human neuroblastoma); assay: CellTiterGlo cell viability assay; assay type: cell-based
[17] = tested on: THP1 (Human acute monocytic leukemia); assay: CellTiterGlo cell viability assay; assay type: cell-based; conditions: THP-1
[18] = tested on: TSC2−/− mouse embryonic fibroblasts (TSC2−/− MEF) cells; assay: High throughput cell viability screen (CellTiter-Glo); assay type: cell-based; conditions: 72 h
Procedure: as §1

NHL cell lines = assay: 7 day cell viability assay, NHL cell lines; assay type: cell-based; conditions: 7 day assay; for pIC50: 168 h
Description: (§3) This is exemplified in FIG. 2A for the HCT116 colorectal carcinoma cells. […] And all NHL subtypes were sensitive in this assay, including mantle, follicular, Burkitt's, DLBCL-ABC, DLBCL-GCB, and double-hit DLBCL.

all cell lines = assay: Longer cell viability assays (3, 5, and 7 days); assay type: cell-based; conditions: 168 h, 7-day exposure
Description: as §3

PIKfyve = biological target: T1, PIKfyve (Homo sapiens, UniProt Q9Y2I7); assay: Chemical capture mass spectrometry (CCMS); assay type: binding; conditions: apilimod as competitor ligand
T1 construct: whole cell lysate prepared from human neuroglioma cells; endogenous in cells; host or cells: human neuroglioma cells (whole cell lysate)
Procedure: (§4) This work was performed at Caprotec Bioanalytics GmbH, Berlin Germany. See Michaelis et al., J. Med. Chem., 55 3934-44 (2012) and references cited therein. […] Capture conditions were optimized in whole cell lysate, e.g. minimization of non-specific interactions of the proteins with capture compounds, concentration of reagents and proteins to obtain maximum binding of proteins and capture compounds, etc. […] These specific binders were further subjected to stringent data analysis criteria to determine specificity after unbiased data evaluation. Specific protein binders were ranked according to their fold change (FC) values in the capture experiments.

Vac14 = biological target: T2, Vac14 (Homo sapiens, UniProt Q08AM6); assay: Chemical capture mass spectrometry (CCMS); assay type: binding; conditions: apilimod as competitor ligand
T2 construct: whole cell lysate prepared from human neuroglioma cells; endogenous in cells; host or cells: human neuroglioma cells (whole cell lysate)
Procedure: as §4

[19] = tested on: 456 kinases (PIKfyve not included); assay: Kinase panel binding screen (DiscoveRx); conditions: screening concentration 1 μM
Description: Next, apilimod was screened against a comprehensive panel of kinases (PIKfyve not included).

H4 neuroglioma cells = assay: Endolysosomal (vacuole) phenotype, DIC images; assay type: cell-based, Human; conditions: 100 nM apilimod, 24 hrs
Description: PIKfyve produces the lipid products PI(3,5)P2 and PI5P, which in turn serve to establish membrane identity and control endolysosomal dynamics. Studies have shown that the PI(3,5)P2 depletion arising from inhibition of PIKfyve produces a swollen endolysosome phenotype. […] This phenotype was reversible, and cancer cell lines reverted to normal appearance within 3-4 days after drug removal.

[20] = tested on: peripheral blood mononuclear cells; assay: Vacuole formation in peripheral blood mononuclear cells; assay type: cell-based; conditions: treatment for 24 h

T2 sequence (Q08AM6 whole entry): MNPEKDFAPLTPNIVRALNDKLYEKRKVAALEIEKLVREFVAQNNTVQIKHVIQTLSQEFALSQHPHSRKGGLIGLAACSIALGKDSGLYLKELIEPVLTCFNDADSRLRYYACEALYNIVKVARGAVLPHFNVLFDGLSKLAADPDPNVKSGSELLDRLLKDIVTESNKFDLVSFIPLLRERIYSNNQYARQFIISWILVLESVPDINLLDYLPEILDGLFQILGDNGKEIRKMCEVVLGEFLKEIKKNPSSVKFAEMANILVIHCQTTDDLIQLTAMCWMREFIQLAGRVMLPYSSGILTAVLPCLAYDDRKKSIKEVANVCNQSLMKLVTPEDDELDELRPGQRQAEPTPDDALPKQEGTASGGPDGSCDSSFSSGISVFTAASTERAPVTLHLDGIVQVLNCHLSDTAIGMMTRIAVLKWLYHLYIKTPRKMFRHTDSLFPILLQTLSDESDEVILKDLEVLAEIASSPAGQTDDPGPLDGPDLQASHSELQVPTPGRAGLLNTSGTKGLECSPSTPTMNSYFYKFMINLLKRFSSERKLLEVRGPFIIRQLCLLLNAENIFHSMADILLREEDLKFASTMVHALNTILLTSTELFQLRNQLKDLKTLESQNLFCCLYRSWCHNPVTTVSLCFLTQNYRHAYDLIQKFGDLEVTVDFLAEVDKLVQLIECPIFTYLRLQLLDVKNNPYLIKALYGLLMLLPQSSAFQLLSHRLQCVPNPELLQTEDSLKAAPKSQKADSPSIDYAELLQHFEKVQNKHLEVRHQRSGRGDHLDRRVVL
T2 sequence (Q9Y2I7 2-2098 partner): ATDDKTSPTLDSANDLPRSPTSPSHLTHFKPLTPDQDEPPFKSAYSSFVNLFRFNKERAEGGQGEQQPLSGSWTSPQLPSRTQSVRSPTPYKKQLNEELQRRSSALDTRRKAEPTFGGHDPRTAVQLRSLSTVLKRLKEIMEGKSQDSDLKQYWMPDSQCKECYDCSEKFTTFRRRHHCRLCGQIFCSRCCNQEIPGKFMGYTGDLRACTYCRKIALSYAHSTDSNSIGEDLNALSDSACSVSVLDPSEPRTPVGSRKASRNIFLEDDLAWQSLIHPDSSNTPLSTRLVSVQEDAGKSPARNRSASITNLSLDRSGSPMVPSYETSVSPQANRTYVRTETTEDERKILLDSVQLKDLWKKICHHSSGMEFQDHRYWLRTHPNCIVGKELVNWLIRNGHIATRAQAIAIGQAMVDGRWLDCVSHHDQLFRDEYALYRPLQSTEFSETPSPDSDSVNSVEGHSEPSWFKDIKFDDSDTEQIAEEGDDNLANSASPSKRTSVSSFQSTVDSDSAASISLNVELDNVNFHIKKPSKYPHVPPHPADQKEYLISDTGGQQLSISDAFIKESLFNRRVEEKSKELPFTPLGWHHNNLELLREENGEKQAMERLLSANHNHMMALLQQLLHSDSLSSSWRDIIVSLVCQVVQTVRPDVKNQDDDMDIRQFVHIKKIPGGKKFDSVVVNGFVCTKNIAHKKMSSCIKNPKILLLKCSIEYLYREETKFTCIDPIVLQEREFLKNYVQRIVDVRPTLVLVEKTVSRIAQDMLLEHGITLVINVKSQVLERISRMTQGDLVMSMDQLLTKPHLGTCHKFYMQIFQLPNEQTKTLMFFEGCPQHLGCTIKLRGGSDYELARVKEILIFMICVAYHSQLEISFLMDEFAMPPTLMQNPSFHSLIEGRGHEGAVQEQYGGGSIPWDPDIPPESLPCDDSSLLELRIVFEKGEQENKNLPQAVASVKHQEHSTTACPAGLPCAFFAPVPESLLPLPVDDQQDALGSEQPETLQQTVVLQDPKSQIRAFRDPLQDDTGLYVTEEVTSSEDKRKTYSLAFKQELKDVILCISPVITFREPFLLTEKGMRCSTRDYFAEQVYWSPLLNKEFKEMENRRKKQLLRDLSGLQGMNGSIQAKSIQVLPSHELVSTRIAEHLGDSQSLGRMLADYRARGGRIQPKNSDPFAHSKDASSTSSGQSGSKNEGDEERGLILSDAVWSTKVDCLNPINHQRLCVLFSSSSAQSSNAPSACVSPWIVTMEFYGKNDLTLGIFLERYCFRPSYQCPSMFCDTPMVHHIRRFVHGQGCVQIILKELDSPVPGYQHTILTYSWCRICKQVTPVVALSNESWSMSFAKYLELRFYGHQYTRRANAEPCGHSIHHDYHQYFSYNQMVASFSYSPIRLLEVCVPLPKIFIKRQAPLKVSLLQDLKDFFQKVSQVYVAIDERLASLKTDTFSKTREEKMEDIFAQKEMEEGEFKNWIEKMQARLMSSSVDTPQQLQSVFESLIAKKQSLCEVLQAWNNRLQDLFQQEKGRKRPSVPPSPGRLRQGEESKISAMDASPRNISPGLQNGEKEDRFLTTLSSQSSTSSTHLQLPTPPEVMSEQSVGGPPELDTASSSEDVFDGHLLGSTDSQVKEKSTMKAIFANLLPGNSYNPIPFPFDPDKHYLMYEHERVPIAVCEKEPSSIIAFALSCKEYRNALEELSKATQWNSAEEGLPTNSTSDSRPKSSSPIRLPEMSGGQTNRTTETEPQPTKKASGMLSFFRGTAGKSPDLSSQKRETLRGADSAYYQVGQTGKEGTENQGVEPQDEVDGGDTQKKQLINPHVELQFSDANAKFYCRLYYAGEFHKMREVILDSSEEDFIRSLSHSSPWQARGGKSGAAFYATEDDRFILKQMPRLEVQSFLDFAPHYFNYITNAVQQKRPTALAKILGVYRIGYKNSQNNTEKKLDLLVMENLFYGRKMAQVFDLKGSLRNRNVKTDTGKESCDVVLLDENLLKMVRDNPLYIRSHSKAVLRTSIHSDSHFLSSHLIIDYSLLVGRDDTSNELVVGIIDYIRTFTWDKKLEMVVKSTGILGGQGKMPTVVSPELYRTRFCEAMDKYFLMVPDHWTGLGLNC
T1 sequence (Q9Y2I7 whole entry): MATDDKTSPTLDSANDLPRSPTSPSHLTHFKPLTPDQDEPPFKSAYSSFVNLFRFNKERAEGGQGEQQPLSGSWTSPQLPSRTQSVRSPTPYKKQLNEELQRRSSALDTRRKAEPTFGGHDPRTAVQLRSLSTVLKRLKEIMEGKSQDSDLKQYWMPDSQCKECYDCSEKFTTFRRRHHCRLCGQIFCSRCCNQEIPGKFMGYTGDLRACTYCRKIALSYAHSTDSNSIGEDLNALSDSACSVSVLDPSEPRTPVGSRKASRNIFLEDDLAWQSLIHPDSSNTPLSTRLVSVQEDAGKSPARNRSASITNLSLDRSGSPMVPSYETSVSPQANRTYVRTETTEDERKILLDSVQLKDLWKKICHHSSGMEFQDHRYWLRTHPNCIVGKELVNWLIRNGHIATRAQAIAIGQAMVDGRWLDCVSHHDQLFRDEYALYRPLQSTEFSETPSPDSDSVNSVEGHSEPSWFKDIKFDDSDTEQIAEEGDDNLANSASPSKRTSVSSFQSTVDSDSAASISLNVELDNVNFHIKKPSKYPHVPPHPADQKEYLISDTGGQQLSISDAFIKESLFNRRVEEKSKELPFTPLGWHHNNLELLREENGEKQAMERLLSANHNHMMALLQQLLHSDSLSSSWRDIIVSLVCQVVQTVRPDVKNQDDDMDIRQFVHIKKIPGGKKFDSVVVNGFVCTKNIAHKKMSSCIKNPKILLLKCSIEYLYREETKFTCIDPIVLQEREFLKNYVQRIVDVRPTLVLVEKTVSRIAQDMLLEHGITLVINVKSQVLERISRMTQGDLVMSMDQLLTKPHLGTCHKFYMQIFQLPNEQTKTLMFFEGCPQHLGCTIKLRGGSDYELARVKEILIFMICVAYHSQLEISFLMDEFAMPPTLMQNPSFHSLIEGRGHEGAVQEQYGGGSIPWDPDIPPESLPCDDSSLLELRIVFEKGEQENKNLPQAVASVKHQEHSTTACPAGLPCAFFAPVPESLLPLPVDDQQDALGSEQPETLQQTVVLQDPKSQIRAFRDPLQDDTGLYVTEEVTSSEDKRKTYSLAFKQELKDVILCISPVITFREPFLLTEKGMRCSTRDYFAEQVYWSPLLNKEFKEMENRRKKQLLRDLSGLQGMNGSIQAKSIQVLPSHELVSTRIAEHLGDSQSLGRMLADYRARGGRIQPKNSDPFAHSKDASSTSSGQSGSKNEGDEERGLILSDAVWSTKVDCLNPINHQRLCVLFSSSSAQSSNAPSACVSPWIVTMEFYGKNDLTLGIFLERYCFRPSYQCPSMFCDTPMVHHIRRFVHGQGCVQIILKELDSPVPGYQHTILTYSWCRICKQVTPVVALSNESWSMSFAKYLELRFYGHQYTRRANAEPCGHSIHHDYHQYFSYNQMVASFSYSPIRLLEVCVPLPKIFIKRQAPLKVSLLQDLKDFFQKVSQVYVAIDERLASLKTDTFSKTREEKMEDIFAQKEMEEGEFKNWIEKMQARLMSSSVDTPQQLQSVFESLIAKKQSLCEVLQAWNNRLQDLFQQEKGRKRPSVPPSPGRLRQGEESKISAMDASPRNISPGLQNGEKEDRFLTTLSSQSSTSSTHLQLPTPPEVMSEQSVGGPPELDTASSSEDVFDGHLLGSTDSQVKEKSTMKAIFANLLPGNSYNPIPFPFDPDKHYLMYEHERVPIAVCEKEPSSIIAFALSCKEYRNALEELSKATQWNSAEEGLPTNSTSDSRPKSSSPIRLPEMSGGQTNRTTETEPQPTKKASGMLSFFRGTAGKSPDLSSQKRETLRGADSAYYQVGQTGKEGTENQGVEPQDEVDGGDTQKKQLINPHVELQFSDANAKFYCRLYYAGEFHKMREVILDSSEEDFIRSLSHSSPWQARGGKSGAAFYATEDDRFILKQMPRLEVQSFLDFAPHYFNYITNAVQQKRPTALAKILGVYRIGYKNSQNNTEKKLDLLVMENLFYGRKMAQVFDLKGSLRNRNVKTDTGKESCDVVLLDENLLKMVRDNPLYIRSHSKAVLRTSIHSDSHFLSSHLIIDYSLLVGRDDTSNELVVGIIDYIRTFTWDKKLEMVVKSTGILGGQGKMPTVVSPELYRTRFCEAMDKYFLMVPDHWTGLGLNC

Cc1cccc(/C=N/Nc2cc(N3CCOCC3)nc(OCCc3ccccn3)n2)c1 [apilimod]
pIC50 [1]: < 5.00 | pIC50 [2]: 6.70 | pIC50 [3]: 6.90 | pIC50 [4]: < 6.00 | pIC50 (HT-29 (Human Colorectal)): < 5.00 | pIC50 [5]: < 5.00 | pIC50 [6]: < 5.00 | pIC50 [7]: 6.52 | pIC50 [8]: 6.23 | pIC50 [9]: 5.82 | pIC50 (SW480 (Human Colorectal)): 7.05 | pIC50 [10]: 6.57 | IC50 ([11]; Homo sapiens, WSUDLCL2, 72 h, three-day assay, read-out: IC50 (nM) WSU-DLCL2): 54 nM | pIC50 ([11]; WSUDLCL2, Human DLBCL-GCB, read-out: IC50): 6.80 | pIC50 [12]: < 5.70 | pIC50 [13]: < 5.30 | pIC50 (TOV-21G (Human ovarian)): 5.15 | pIC50 [14]: 5.00 | pIC50 [15]: < 5.00 | pIC50 [16]: < 5.00 | pIC50 [17]: < 5.00 | viability at 0.5 µM ([18]; MEF-EV, 0.5 μM, Mean+/−StDev, n=3, read-out: cell viability (percentage of untreated control cells)): 2.16% | viability at 5 µM ([18]; MEF-EV, 5 μM, Mean+/−StDev, n=3, read-out: cell viability (percentage of untreated control cells)): 1.94% | pIC50 ([18]; TSC2−/− MEF cells, 10 point dose-response): 7.71 | share of NHL cell lines sensitive to apilimod (NHL cell lines; 32 NHL cell lines tested): 72% | pIC50 (NHL cell lines; different NHL subtypes, read-out: IC50): > 6.90 | pIC50 (NHL cell lines; sensitive NHL cell lines, read-out: average IC50): 7.16 | pIC50 (all cell lines): > 6.90 | log2 (FC) (PIKfyve; capture compound 0.1 μM, human neuroglioma whole cell lysate): 6.3 | log2 (FC) (PIKfyve; capture compound 0.5 μM): 6.2 | log2 (FC) (PIKfyve; capture compound 1.0 μM): 4.1 | log2 (FC) (PIKfyve; capture compound 2.0 μM): 4.3 | log2 (FC) (Vac14; capture compound 0.1 μM): 6.2 | log2 (FC) (Vac14; capture compound 0.5 μM): 5.6 | log2 (FC) (Vac14; capture compound 1.0 μM): Inf. | log2 (FC) (Vac14; capture compound 2.0 μM): 3.9 | binding to kinase panel [19]: did not bind to any of the 456 kinases tested | cell phenotype (H4 neuroglioma cells): striking swollen endolysosomal (vacuole) phenotype | vacuole formation [20]: induces vacuole formation
